Source: paper PMC7827406, “Structure–Activity Relationship (SAR) Study of Spautin-1 to Entail the Discovery of Novel NEK4 Inhibitors” (International Journal of Molecular Sciences, 2021)
Like-named read-outs stand apart in the source and are kept apart here.

Legend:
Test in all cases: biochemical
Design in all cases: Eurofins KinaseProfiler full panel at Km ATP, residual kinase activity (%) relative to DMSO
ATM(h) = ATM(h) (Homo sapiens, UniProt Q13315)
Outline: (§1)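 Compounds screened at 10 µM in radiometric kinase activity assays at Km ATP, reported as remaining kinase activity (%). A KINOMEscan competition-binding screen at 10 µM measured DNA-tagged kinase retained on immobilized active-site ligand by qPCR.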

Arg(m) = target: T1, Arg(m) (Mus musculus, UniProt Q4JIM5)
T1 construct: gene Abl2
Outline: as §1

CDK2/cyclinE(h) = CDK2/cyclinE(h) (Homo sapiens, UniProt P24941)
Outline: as §1

CaMKIδ(h) = target: T2, CaMKIδ(h) (Homo sapiens, UniProt Q8IU85)
T2 construct: gene CAMK1D
T2 sequence (Q8IU85 whole entry): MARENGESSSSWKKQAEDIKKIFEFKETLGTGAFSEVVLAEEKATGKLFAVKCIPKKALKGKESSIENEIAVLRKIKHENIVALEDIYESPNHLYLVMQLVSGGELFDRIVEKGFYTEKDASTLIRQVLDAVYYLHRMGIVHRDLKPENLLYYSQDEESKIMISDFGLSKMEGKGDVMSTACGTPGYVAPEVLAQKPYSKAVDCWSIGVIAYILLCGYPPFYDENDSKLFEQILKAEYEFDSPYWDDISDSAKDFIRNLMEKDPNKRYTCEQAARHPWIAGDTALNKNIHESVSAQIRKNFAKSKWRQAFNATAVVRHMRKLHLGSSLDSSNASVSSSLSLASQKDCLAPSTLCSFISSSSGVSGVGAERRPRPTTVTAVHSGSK
Outline: as §1

DNA-PK(h) = target: T3, DNA-PK(h) (Homo sapiens, UniProt P78527)
T3 construct: gene PRKDC
Outline: as §1

IRR(h) = target: T4, IRR(h) (Homo sapiens, UniProt P14616)
T4 construct: gene INSRR
Outline: as §1

LOK(h) = target: T5, LOK(h) (Homo sapiens, UniProt O94804)
T5 construct: gene STK10
T5 sequence (O94804 whole entry): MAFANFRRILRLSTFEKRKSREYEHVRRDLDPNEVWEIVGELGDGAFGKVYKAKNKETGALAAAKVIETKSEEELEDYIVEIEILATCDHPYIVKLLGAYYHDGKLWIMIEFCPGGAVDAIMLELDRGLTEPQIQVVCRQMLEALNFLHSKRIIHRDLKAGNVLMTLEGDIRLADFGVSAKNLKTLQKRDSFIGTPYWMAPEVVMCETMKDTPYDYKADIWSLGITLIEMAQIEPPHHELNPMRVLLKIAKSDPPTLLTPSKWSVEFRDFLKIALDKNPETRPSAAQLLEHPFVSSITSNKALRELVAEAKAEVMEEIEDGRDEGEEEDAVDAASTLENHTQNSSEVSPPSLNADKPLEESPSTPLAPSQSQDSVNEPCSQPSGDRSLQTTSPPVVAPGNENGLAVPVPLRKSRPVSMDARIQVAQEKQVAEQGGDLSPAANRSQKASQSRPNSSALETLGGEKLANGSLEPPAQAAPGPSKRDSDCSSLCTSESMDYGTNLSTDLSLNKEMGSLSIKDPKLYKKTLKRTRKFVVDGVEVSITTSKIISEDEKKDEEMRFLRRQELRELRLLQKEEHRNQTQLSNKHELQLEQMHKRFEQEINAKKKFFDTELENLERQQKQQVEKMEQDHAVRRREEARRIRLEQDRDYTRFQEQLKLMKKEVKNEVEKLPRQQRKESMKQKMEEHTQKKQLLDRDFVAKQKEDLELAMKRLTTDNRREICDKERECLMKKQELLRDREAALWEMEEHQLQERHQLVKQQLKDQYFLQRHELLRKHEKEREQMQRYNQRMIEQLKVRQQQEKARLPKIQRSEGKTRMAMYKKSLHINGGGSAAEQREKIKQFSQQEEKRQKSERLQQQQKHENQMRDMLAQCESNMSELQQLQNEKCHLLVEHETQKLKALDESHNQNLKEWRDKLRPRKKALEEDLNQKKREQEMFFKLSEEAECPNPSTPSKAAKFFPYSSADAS
Outline: as §1

PhKγ1(h) = target: T6, PhKγ1(h) (Homo sapiens, UniProt Q16816)
T6 construct: gene PHKG1
T6 sequence (Q16816 whole entry): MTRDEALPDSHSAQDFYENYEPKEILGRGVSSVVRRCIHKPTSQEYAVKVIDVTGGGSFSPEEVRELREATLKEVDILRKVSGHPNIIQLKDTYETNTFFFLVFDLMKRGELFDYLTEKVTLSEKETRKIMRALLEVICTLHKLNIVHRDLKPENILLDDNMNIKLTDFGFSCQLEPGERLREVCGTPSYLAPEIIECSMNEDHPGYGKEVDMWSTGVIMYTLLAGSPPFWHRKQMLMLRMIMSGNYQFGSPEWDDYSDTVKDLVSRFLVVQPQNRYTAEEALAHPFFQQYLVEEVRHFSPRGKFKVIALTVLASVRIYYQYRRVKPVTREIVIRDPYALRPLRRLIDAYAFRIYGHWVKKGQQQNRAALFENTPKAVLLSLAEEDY
Outline: as §1

SGK3(h) = target: T7, SGK3(h) (Homo sapiens, UniProt Q96BR1)
T7 sequence (Q96BR1 1-496): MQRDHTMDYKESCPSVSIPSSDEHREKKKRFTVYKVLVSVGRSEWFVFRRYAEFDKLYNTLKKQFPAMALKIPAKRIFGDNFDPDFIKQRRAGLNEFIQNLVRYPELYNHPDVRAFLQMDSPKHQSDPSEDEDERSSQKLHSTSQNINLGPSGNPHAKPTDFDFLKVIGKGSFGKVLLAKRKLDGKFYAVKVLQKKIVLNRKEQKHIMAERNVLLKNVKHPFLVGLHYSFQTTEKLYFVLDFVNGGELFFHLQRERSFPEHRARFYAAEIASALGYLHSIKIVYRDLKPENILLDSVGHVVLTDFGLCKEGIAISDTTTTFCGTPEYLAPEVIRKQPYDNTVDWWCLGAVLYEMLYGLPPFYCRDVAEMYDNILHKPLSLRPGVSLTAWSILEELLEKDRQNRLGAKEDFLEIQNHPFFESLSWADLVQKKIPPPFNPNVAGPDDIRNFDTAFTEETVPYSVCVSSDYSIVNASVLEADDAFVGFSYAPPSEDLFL
Outline: as §1

WNK1(h) = WNK1(h) (Homo sapiens, UniProt Q9H4A3)
Outline: as §1

ZAK(h) = target: T8, ZAK(h) (Homo sapiens, UniProt Q9NYL2)
T8 construct: gene MAP3K20
Outline: as §1

[1] = read-out: Residual activity (%) 5ay
[2] = read-out: Residual activity (%) Spautin-1 5aa
[3] = read-out: Residual activity (%) 5at
[4] = read-out: Residual activity (%) 5as

Chain of ATM(h) (Q13315 whole entry): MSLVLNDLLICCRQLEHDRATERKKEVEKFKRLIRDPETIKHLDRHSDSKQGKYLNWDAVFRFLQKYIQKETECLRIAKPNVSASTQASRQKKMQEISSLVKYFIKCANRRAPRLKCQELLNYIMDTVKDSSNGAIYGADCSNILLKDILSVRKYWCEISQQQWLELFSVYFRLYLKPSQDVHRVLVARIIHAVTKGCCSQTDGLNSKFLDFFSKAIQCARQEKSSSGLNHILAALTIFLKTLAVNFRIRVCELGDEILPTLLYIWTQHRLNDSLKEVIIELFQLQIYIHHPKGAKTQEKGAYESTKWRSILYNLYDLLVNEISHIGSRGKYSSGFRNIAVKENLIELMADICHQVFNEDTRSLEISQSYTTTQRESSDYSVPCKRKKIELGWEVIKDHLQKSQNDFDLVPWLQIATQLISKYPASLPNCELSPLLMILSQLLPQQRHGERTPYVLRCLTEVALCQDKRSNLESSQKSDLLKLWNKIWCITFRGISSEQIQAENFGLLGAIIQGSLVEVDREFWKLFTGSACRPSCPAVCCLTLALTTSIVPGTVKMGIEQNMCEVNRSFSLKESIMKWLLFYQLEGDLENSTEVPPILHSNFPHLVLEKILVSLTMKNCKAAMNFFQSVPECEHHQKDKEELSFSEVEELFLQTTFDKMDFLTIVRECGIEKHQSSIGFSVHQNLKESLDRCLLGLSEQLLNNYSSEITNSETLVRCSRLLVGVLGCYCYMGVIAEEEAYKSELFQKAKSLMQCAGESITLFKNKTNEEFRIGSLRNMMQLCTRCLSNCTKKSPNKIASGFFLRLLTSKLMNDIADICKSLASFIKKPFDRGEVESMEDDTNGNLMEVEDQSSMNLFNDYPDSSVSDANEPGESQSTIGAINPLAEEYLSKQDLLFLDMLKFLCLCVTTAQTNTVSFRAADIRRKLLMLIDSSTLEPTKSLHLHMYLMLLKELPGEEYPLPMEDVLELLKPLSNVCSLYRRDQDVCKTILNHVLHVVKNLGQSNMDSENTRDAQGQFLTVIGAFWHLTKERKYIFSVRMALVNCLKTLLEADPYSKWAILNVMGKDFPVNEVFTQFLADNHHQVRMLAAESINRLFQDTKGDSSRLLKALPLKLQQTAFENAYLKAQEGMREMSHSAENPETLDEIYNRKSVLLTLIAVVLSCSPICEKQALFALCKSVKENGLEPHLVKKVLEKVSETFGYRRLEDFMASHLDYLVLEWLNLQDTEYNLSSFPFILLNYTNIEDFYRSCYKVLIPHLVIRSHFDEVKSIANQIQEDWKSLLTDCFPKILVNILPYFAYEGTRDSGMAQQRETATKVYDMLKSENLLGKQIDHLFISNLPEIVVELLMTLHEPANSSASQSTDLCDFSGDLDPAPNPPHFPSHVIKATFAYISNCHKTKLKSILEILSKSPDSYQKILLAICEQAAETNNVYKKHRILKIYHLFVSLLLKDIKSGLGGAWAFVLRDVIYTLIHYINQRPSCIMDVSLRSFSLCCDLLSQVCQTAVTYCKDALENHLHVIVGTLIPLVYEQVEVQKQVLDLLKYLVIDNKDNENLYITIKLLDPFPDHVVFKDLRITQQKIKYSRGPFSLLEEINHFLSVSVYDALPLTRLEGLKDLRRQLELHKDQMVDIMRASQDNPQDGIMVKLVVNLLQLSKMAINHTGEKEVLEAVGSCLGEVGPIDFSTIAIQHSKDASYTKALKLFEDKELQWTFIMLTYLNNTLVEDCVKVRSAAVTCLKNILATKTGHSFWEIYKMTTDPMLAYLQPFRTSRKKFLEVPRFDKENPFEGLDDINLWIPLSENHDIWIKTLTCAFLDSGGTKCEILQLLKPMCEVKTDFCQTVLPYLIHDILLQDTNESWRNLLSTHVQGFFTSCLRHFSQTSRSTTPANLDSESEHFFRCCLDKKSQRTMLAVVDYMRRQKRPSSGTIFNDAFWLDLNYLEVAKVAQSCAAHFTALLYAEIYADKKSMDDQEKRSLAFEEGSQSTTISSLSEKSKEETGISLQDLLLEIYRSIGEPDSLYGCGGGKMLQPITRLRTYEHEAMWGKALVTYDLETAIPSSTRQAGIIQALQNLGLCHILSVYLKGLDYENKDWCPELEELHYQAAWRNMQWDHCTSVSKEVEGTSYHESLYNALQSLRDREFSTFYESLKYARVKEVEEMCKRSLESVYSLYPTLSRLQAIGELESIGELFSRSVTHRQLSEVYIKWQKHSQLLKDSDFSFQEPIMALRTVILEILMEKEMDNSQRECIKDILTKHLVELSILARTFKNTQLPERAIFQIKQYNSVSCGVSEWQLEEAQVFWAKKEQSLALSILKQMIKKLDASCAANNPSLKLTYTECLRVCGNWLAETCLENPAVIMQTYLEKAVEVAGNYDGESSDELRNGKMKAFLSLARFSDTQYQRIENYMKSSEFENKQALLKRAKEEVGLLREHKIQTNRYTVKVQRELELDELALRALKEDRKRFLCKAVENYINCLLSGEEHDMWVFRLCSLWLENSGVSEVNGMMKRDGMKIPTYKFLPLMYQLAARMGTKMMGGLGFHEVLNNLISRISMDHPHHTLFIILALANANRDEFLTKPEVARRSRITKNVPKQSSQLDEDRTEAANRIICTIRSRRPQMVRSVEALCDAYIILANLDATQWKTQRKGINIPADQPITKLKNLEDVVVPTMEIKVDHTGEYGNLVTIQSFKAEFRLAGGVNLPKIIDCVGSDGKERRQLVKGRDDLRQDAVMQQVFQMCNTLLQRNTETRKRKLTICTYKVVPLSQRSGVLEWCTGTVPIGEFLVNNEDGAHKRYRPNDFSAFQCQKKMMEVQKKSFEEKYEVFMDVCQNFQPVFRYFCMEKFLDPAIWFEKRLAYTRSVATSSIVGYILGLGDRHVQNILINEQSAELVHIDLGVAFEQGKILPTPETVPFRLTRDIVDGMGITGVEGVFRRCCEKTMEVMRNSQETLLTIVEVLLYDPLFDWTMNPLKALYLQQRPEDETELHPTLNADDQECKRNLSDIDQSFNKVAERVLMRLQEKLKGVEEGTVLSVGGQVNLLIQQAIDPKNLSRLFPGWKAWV

Structure (SMILES): COc1ccc2ncnc(Nc3cccc(F)c3)c2c1 [5ay, N-(3-Fluorophenyl)-6-Methoxy-4-Quinazolinamine]
- remaining activity at 10 µM (ATM(h); [1]): 90%
- remaining activity at 10 µM (Arg(m); [1]): 83%
- remaining activity at 10 µM (CDK2/cyclinE(h); [1]): 89%
- remaining activity at 10 µM (CaMKIδ(h); [1]): 89%
- remaining activity at 10 µM (DNA-PK(h); [1]): 72%
- remaining activity at 10 µM (IRR(h); [1]): 99%
- remaining activity at 10 µM (LOK(h); [1]): 35%
- remaining activity at 10 µM (PhKγ1(h); [1]): 121%
- remaining activity at 10 µM (SGK3(h); [1]): 91%
- remaining activity at 10 µM (WNK1(h); [1]): 75%
- remaining activity at 10 µM (ZAK(h); [1]): 61%

Structure (SMILES): Fc1ccc(CNc2ncnc3ccc(F)cc23)cc1 [5aa, 6-Fluoro-N-(4-fluorobenzyl)-4-Quinazolinamine]
- remaining activity at 10 µM (ATM(h); [2]): 93%
- remaining activity at 10 µM (Arg(m); [2]): 91%
- remaining activity at 10 µM (CDK2/cyclinE(h); [2]): 69%
- remaining activity at 10 µM (CaMKIδ(h); [2]): 91%
- remaining activity at 10 µM (DNA-PK(h); [2]): 89%
- remaining activity at 10 µM (IRR(h); [2]): 93%
- remaining activity at 10 µM (LOK(h); [2]): 91%
- remaining activity at 10 µM (PhKγ1(h); [2]): 102%
- remaining activity at 10 µM (SGK3(h); [2]): 95%
- remaining activity at 10 µM (WNK1(h); [2]): 78%
- remaining activity at 10 µM (ZAK(h); [2]): 70%

Structure (SMILES): Fc1ccc2ncnc(NCCc3ccc(Cl)cc3)c2c1 [5at, N-[2-(4-Chlorophenyl)Ethyl]-6-Fluoro-4-Quinazolinamine]
- remaining activity at 10 µM (ATM(h); [3]): 86%
- remaining activity at 10 µM (Arg(m); [3]): 98%
- remaining activity at 10 µM (CDK2/cyclinE(h); [3]): 54%
- remaining activity at 10 µM (CaMKIδ(h); [3]): 92%
- remaining activity at 10 µM (DNA-PK(h); [3]): 85%
- remaining activity at 10 µM (IRR(h); [3]): 79%
- remaining activity at 10 µM (LOK(h); [3]): 87%
- remaining activity at 10 µM (PhKγ1(h); [3]): 141%
- remaining activity at 10 µM (SGK3(h); [3]): 93%
- remaining activity at 10 µM (WNK1(h); [3]): 92%
- remaining activity at 10 µM (ZAK(h); [3]): 72%

Structure (SMILES): Fc1ccc(CCNc2ncnc3ccc(F)cc23)cc1 [5as, 6-Fluoro-N-[2-(4-Fluorophenyl)Ethyl]-4-Quinazolinamine]
- remaining activity at 10 µM (ATM(h); [4]): 88%
- remaining activity at 10 µM (Arg(m); [4]): 105%
- remaining activity at 10 µM (CDK2/cyclinE(h); [4]): 103%
- remaining activity at 10 µM (CaMKIδ(h); [4]): 90%
- remaining activity at 10 µM (DNA-PK(h); [4]): 74%
- remaining activity at 10 µM (IRR(h); [4]): 87%
- remaining activity at 10 µM (LOK(h); [4]): 81%
- remaining activity at 10 µM (PhKγ1(h); [4]): 120%
- remaining activity at 10 µM (SGK3(h); [4]): 88%
- remaining activity at 10 µM (WNK1(h); [4]): 81%
- remaining activity at 10 µM (ZAK(h); [4]): 61%
